Where a name gives a salt, the structure may show the parent alone. No end group written: not given here.
How the values were obtained:
Assay type in all cases: cell-based
[1] = test system: 168 GPCRs; test: gpcrMAX panel 30 μM single-point β-arrestin screen (agonist and antagonist mode); details: antagonist mode
Protocol: Activity, or a “hit,” was defined as >30% in agonist mode, >35% in antagonist mode, or >50% in the orphan screen (agonist mode). Where these criteria were met, signal-to-noise (S/N) and coefficient of variation (CoV) were also calculated, defined as: […]
Agonist mode Antagonist modeS/N Compound mean/Baseline mean+(Baseline SD×3) EC80 mean/Compound-(Compound SD× 3)CoV Baseline mean/Compound mean-(Compound SD× 3) Compound mean/EC80 mean-(EC80 SD × 3)
Hits were verified to have S/N>1 and a CoV <1. Thresholds and subsequent validation were guided by Eurofins. Descriptive data (means ± S.E.M) was generated in Graphpad Prism (version 9.2.0, San Diego, CA).

[2] = target: T1, GPR119 (Homo sapiens, UniProt Q8TDV5); test: PathHunter β-arrestin assay; details: for inhibition in single-point screen: antagonist mode, 30 μM
T1 construct: purchased Eurofins DiscoverX (PathHunter gpcrMAX)
T1 sequence (Q8TDV5 1-335): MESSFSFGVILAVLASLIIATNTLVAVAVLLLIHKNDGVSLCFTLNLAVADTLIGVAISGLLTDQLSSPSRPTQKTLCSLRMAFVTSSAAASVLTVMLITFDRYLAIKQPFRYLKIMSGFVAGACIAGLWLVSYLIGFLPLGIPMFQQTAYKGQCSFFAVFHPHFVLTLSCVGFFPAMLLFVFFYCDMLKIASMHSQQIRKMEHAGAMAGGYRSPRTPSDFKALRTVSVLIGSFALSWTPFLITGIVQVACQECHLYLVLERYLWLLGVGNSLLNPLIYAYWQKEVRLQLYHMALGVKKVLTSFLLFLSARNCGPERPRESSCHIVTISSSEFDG

[3] = target: T2, CCR4 (Homo sapiens, UniProt P51679); test: PathHunter β-arrestin assay; details: for EC80: control agonist
T2 sequence (P51679 1-360): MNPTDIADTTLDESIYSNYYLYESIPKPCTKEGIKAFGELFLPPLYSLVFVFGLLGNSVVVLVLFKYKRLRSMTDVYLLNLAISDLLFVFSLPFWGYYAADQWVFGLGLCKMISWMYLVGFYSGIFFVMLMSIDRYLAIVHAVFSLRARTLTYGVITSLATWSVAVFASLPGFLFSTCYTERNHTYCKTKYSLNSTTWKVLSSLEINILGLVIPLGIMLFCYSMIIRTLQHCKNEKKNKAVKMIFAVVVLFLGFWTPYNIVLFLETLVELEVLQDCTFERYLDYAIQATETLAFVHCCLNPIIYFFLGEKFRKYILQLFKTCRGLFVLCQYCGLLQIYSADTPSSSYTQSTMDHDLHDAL
Protocol: (§1) Follow up experiments were prioritized based on the difference between S/N and CoV. Targets with a >5-fold difference between S/N and CoV were investigated for their potential contribution to the AMB-FUBINACA toxidrome with 10-point concentration-response curves generated in technical replicate (range 1.5–30 μM) using the EC80 of the relevant agonist, where applicable in antagonist mode. Simultaneous agonist and antagonist curves were run in parallel to ensure reliability of the assay (see Supplementary Table 2), with both RC50 and signal to background aligning with historical averages, and Z' >0.5. RC50 was estimated using a four-parameter fit (CBIS Data Analysis Suite, ChemInnovation, San Diego, CA) on normalized data.

[4] = target: PTGER4 (Homo sapiens, UniProt P35408); test: PathHunter β-arrestin assay; details: follow-up assays, control antagonist
Protocol: as §1

[5] = target: P2RY6 (Homo sapiens, UniProt Q15077); test: PathHunter β-arrestin assay
Protocol: as §1

[6] = test system: AtT20 cells wildtype (WT); test: LDH release cytotoxicity assay; details: 30 μM
Protocol: AtT20 cells expressing either human CB1 (hCB1) or CB2 (hCB2) receptors or wildtype (WT) were grown to confluence in T75 cm^2 flasks in Dulbecco's modified eagle medium containing 10% fetal bovine serum, 100 U penicillin/streptomycin, and 80 μg/mL hygromicyin (Sigma-Aldrich/Merck; Castle Hill, NSW, Australia). Cells were plated in 96-well-microplates at 30,000 cells per well and allowed to adhere overnight in 5% CO2. The following morning, cells were treated with either vehicle (0.1% DMSO; negative control), 30 μM Δ^9-THC, or 30 μM AMB-FUBINACA. At 1 or 6 h, the amount of lactate dehydrogenase in the cell media was tested, and compared with positive control (lysed cells) as per manufacturer's instructions (Dojindo Molecular Technologies, Inc.; Rockville, MD, USA), with readings performed on a Clariostar Plus plate reader (BMG Labtech, Mornington, VIC, Australia). Experiments were performed in triplicate. In order to measure any accumulating LDH, media was not changed after initial incubation. Data is represented as means ± S.E.M. A two-way ANOVA with was performed on the data at each time point, with Tukey's multiple comparison test (α = 0.05). A p < 0.05 was considered statistically significant.

[7] = target: T3, ADRA2C (Homo sapiens, UniProt P18825); test: PathHunter β-arrestin assay; details: control agonist
T3 sequence (P18825 1-462): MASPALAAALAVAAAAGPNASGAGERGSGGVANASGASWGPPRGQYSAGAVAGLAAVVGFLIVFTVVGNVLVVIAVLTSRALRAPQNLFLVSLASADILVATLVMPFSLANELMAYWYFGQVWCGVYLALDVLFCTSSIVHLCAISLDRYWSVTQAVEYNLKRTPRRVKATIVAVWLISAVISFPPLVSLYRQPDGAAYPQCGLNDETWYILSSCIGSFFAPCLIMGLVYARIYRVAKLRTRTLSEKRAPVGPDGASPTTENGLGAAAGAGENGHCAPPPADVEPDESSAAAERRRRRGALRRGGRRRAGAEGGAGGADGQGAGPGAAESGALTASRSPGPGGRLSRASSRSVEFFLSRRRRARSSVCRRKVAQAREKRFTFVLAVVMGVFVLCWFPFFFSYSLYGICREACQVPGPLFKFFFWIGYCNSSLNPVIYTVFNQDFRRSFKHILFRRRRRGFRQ

[8] = target: GPR35 (Homo sapiens, UniProt Q9HC97); test: PathHunter β-arrestin assay; details: control agonist
[9] = target: T4, CCR6 (Homo sapiens, UniProt P51684); test: PathHunter β-arrestin assay; details: control agonist
T4 construct: purchased Eurofins DiscoverX (PathHunter gpcrMAX)
T4 sequence (P51684 1-374): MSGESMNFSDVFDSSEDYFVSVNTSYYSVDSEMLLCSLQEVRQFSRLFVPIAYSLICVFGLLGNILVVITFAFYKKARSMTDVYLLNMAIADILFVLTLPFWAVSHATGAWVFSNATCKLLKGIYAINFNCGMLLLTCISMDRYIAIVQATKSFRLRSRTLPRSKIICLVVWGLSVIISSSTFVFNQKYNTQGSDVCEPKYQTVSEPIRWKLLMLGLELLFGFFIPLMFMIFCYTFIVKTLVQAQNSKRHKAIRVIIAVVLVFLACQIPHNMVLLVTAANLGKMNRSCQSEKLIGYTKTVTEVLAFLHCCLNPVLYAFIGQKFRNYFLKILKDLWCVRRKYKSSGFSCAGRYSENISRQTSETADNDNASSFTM
Protocol: as §1

[10] = target: T5, HCRTR1 (Homo sapiens, UniProt O43613); test: PathHunter β-arrestin assay; details: control agonist
T5 sequence (O43613 1-425): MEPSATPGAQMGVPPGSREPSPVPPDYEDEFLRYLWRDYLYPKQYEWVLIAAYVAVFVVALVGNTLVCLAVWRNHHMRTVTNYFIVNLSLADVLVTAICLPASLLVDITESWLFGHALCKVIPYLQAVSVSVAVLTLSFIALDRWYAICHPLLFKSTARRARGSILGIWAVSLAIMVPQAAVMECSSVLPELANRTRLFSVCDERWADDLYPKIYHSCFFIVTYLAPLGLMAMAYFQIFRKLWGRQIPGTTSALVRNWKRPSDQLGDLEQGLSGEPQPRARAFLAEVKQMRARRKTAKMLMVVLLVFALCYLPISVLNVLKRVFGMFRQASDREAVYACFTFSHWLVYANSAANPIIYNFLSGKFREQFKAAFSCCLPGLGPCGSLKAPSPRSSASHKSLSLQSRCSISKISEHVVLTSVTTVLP
Protocol: as §1

[11] = target: T6, CCR9 (Homo sapiens, UniProt P51686); test: PathHunter β-arrestin assay; details: control agonist
T6 construct: purchased Eurofins DiscoverX (PathHunter gpcrMAX)
T6 sequence (P51686 1-369): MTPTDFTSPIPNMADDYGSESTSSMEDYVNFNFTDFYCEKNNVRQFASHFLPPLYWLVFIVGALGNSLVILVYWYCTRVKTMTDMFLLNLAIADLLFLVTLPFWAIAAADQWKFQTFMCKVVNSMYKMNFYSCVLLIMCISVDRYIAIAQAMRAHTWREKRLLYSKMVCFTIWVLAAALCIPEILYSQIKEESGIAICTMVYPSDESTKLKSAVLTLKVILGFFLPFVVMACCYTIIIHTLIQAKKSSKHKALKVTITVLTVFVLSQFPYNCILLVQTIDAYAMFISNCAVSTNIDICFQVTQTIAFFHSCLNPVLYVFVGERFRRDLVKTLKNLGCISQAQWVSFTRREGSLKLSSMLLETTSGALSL
Protocol: as §1

[12] = target: CCR8 (Homo sapiens, UniProt P51685); test: PathHunter β-arrestin assay; details: control agonist
Protocol: as §1

[13] = follow-up assays, control antagonist
[14] = follow-up concentration-response assays

Chain of GPR35 (Q9HC97 whole entry): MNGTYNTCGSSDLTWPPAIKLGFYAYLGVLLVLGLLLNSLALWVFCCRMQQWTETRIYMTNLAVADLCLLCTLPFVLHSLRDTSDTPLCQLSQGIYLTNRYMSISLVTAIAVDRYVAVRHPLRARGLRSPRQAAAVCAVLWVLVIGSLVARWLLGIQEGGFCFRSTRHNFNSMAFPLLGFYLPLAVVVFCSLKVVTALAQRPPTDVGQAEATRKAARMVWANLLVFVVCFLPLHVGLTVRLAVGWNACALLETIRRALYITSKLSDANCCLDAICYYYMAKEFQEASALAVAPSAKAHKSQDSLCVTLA
Chain of P2RY6 (Q15077 whole entry): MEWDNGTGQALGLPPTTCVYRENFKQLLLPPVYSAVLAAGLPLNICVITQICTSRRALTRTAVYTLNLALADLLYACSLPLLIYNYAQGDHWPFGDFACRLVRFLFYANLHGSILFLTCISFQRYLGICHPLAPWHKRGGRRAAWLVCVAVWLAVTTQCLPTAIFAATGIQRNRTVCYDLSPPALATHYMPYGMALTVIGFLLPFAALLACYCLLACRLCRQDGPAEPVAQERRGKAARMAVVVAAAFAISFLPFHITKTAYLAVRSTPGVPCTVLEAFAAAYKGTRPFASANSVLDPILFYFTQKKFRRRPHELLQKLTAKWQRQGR
Chain of PTGER4 (P35408 whole entry): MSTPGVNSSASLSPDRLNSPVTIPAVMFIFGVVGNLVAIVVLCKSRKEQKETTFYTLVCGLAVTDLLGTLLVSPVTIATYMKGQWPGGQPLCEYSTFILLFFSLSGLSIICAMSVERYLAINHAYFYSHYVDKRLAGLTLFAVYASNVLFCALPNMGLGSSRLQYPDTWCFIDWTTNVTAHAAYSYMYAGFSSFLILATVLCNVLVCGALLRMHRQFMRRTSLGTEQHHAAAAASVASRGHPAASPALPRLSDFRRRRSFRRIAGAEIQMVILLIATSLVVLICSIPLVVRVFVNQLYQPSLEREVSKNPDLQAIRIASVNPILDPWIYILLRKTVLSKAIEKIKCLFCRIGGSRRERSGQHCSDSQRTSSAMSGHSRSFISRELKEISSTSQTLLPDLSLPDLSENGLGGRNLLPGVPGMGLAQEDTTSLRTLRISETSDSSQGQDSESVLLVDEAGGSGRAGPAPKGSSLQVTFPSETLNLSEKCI

## COC(=O)C(NC(=O)c1nn(CCCCF)c2ccccc12)C(C)(C)C (centres unmarked) [4F-MDMB-BUTINACA]
[1]
  number of off-targets inhibited (>35%): 16

## CCCCCn1nc(C(=O)NC23CC4CC(CC(C4)C2)C3)c2ccccc21 [AKB-48]
[2]
  inhibition in single-point screen: inhibited to the greatest extent of any antagonist mode target

## COc1cc2nc(N3CCC(N4CCCCC4)CC3)nc(NC3CCCCCC3)c2cc1OC [C 021 dihydrochloride]
[3]; [13]
  IC50: 2.58 nM

## CCCCCn1nc(C(=O)NC(C)(C)c2ccccc2)c2ccccc21 [CUMYL-PINACA]
[2]
  inhibition in single-point screen: inhibited to the greatest extent of any antagonist mode target
[1]
  number of off-targets inhibited (>35%): inhibited the greatest number of targets

## CCCCc1nn(-c2ccccc2C(F)(F)F)c(=O)n1Cc1ccc(-c2ccccc2S(=O)(=O)NC(=O)c2sccc2C)cc1 [L 161,982]
[4]
  IC50: 15.9 nM

## S=C=Nc1cccc(NC(=S)NCCCCNC(=S)Nc2cccc(N=C=S)c2)c1 [MRS 2578]
[5]; [13]
  IC50: 2520 nM

## CCCCCCCC/C=C\CCCCCCCC(=O)NCCO [Oleoyl Ethanolamide]
[2]; screen, control agonist, HEK, 37C, 2HR
  EC80: 4310 nM

## CCCCCn1cc(C(=O)Oc2cccc3cccnc23)c2ccccc21 [PB-22]
[1]
  number of off-targets inhibited (>35%): 20

## CCCCCc1cc(O)c2c(c1)OC(C)(C)[C@@H]1CCC(C)=C[C@@H]21 [THC, Δ^9-tetrahydrocannabinol]
[6]; 1 h
  LDH in cell media, normalized to total LDH: 22.40 ± 3.44%
[6]; 6 h
  LDH increase compared with vehicle: no effect was observed

## O=c1ccn([C@@H]2O[C@H](COP(=O)(O)OP(=O)(O)O)[C@@H](O)[C@H]2O)c(=O)[nH]1 [UDP]
[5]; follow-up concentration-response assays, control agonist
  EC80: 74.88 nM

## Brc1c(NC2=NCCN2)ccc2nccnc12 [UK 14,304]
[7]; [14]
  EC80: 123.1 nM
[7]; screen, CHO, RT, 2HR
  EC80: 111 nM

## CCCOc1ccccc1-c1nc2nn[nH]c2c(=O)[nH]1 [Zaprinast]
[8]; [14]
  EC80: 4048 nM
[8]; screen, CHO, 37C, 2HR
  EC80: 12100 nM

## CCL20: control agonist
[9]; [14]
  EC80: 44.68 nM
[9]; screen, CHO, 37C, 2HR
  EC80: 44.7 nM

## Orexin A (QPLPDCCRQKTCSCRLYELLHGAGNHAAGILTL; not fully specified (residue 1, C-terminus, bridges); cysteine pairing not given here; UniProt O43612 34-66, looked up) [control agonist]
[10]; [14]
  EC80: 10.62 nM
[10]; screen, CHO, 37C, 2HR
  EC80: 10.6 nM

B1: CCL25: control agonist (protein, UniProt O15444 24-150, looked up)
C-C motif chemokine 25: QGVFEDCCLAYHYPIGWAVLRRAWTYRIQEVSGSCNLPAAIFYLPKRHRKVCGNPKSREVQRAMKLLDARNKVFAKLHHNTQTFQAGPHAVKKLSSGNSKLSSSKFSNPISSSKRNVSLLISANSGL
[11]; [14]
  EC80: 350 nM
[11]; screen, CHO, 37C, 2HR
  EC80: 370 nM

B2: CCL22: control agonist (protein, UniProt O00626 25-93, looked up)
C-C motif chemokine 22: GPYGANMEDSVCCRDYVRYRLPLRVVKHFYWTSDSCPRPGVVLLTFRDKEICADPRVPWVKMILNKLSQ
[3]; [14]
  EC80: 19.61 nM
[3]; screen, CHO, 37C, 2HR
  EC80: 6.54 nM

B3: CCL1: control agonist (protein, UniProt P22362 24-96, looked up)
C-C motif chemokine 1: KSMQVPFSRCCFSFAEQEIPLRAILCYRNTSSICSNEGLIFKLKRGKEACALDTVGWVQRHRKMLRHCPSKRK
[12]; [14]
  EC80: 157.4 nM
[12]; screen, CHO, 37C, 2HR
  EC80: 157 nM

Reference: paper PMC9798004 (Frontiers in Psychiatry, 2022)
